Values quoted from earlier work as cited in patent publication US20050260613A1 (priority 2003, published 2005).

Test system: AD patients
Conditions: presence of the ApoE4 allele

Nc1c2c(nc3ccccc13)CCCC2 [tacrine]
response to treatment in presence of the ApoE4 polymorphism: reduced response
